Source: patent publication EP4389751A1, “HETEROCYCLIC COMPOUNDS AND USES THEREOF” (Kumquat Biosciences Inc., priority 2021, dated 2024)
Read-outs that look alike come from different tables or passages of the source.

Legend:
K-Ras G12S = molecular target: T1, K-Ras G12S (Homo sapiens, UniProt P01116, G12S); assay: HTRF assay of the K-Ras / SOS1 interaction; format: biochemical; details: IC50 (against K-Ras G12D) to IC50 (against K-Ras G12S)
T1 construct: made in house; host or cells: E. coli (e.g., BL21 (DE3))
How it was run: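 GST-K-Ras G12S with anti-GST-Eu donor and His-hSOS1 with anti-6His-XL665 acceptor in ~5 mM HEPES pH 7.4, ~150 mM NaCl, 1 mM DTT, 0.05% BSA, 0.0025% Igepal. Read after ~10 min or longer; IC50 from 665/620 nm ratio, duplicates at 10 µM down to 0.01 µM.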

GP2D cells = assay: Cell proliferation assay (CellTiter-Glo), K-Ras G12D cells; format: cell-based; details: read-out: Inhibition of GP2D Cells (IC50)
Experimental: ASPC-1 (ATCC CRL-1682), Panc-10.05 (ATCC CRL-2547), A427, and GP2D (Sigma 95090714) cell lines comprise a G12D mutation and can be used to assess Ras cellular signaling in vitro, e.g., in response to the compounds herein. […] ASPC-1 culture medium is prepared with RPMI-1640 and 10% heat-inactivated FBS. Panc-10.05 culture medium is prepared with RPMI-1640, 10 Units/ml human recombinant insulin, and 10% FBS. A427 cell culture is prepared with RPMI-1640 and 10% heat-inactivated FBS. GP2D culture medium is prepared with DMEM with 2mM glutamine and 10% heat-inactivated FBS. A Cell Titer-Glo (CTG) luminescent based assay (Promega) is used to assess growth of the cells, as a measurement of the ability of the compounds herein to inhibit Ras signaling in the cells. The cells (e.g., 800 per well) are seeded in their respective culture medium in standard tissue culture-treated 384-well format plates (Falcon #08-772-116) or ultra-low attachment surface 384-well format plates (S-Bio # MS-9384UZ ). The day after plating, cells are treated with a dilution series (e.g., a 9 point 3-fold dilution series) of the compounds herein (e.g., approximately 40 µl final volume per well). Cell viability can be monitored (e.g., approximately 5 days later) according to the manufacturer's recommended instructions, where the CellTiter-Glo reagent is added (e.g., approximately 10 µl), vigorously mixed, covered, and placed on a plate shaker (e.g., approximately for 20 min) to ensure sufficient cell lysis prior to assessment of luminescent signal. The IC50 values are determined using the four parameter fit. The resulting IC50 value is a measurement of the ability of the compounds herein to reduce cell growth of Ras-driven cells (e.g., tumor cell lines) in vitro and/or in vivo.

| Compound | Ratio of IC50 KRAS G12D vs. IC50 KRAS G12S (K-Ras G12S) | IC50 (GP2D cells; GP2D cells (K-Ras G12D)) [nM] | IC50 (GP2D cells; GP2d) [nM] |
| --- | --- | --- | --- |
| 2-amino-4-(6-chloro-8-fluoro-2-(((2R,7aS)-2-fluorotetrahydro-1H-pyrrolizin-7 a(5H)-yl)methoxy)-4-(8-(4-methyl-1H-1,2,3-triazole-1-carbonyl)-3,8-diazabicyclo[3.2.1]octan-3-yl)quinazolin-7-yl)-7-fluorobenzo[b]thiophene-3-carbonitrile [Compound A189] | A (A: indicates that the ratio of IC50 against KrasG12D vs. IC50 against KrasG12S is 1-fold or greater) | ≤ 1000 |  |
| Nc1nc2c(-c3c(Cl)cc4c(N5CC6CCC(C5)N6C(=O)n5cc(F)cn5)nc(OC[C@@]56CCCN5C[C@H](F)C6)nc4c3F)ccc(F)c2s1 [Compound A101, (3-(7-(2-amino-7-fluorobenzo[d]thiazol-4-yl)-6-chloro-8-fluoro-2-(((2R,7aS)-2-fluorotetrahydro-1H-pyrrolizin-7a(5H)-yl)methoxy)quinazolin-4-yl)-3,8-diazabicyclo[3.2.1]octan-8-yl)(4-fluoro-1H-pyrazol-1-yl)methanone] | A (A: indicates that the ratio of IC50 against KrasG12D vs. IC50 against KrasG12S is 1-fold or greater) |  | 1000 to 10000 |
| N#Cc1cnn(C(=O)N2CC3CCC(C2)N3c2nc(OC[C@@]34CCCN3C[C@H](F)C4)nc3c(F)c(-c4ccc(F)c5sc(N)nc45)c(Cl)cc23)c1 [Compound A112, 1-(8-(7-(2-amino-7-fluorobenzo[d]thiazol-4-yl)-6-chloro-8-fluoro-2-(((2R,7aS)-2-fluorotetrahydro-1H-pyrrolizin-7a(5H)-yl)methoxy)quinazolin-4-yl)-3,8-diazabicyclo[3.2. 1]octane-3-carbonyl)-1H-pyrazole-4-carbonitrile] | A (A: indicates that the ratio of IC50 against KrasG12D vs. IC50 against KrasG12S is 1-fold or greater) |  | ≤ 1000 |
| Nc1nc2c(-c3c(Cl)cc4c(NC5CCN(C(=O)n6ccnc6)CC5)nc(OC[C@@]56CCCN5C[C@H](F)C6)nc4c3F)ccc(F)c2s1 [Compound A117, (4-((7-(2-amino-7-fluorobenzo[d]thiazol-4-yl)-6-chloro-8-fluoro-2-(((2R,7aS)-2-fluorotetrahydro-1H-pyrrolizin-7a(5H)-yl)methoxy)quinazolin-4-yl)amino)piperidin-1-yl)(1H-imidazol-1-yl)methanone] | A (A: indicates that the ratio of IC50 against KrasG12D vs. IC50 against KrasG12S is 1-fold or greater) | 1000 to 10000 |  |
| N#Cc1cccn1C(=O)N1C2CCC1CN(c1nc(OC[C@@]34CCCN3C[C@H](F)C4)nc3c(F)c(-c4ccc(F)c5sc(N)nc45)c(Cl)cc13)C2 [Compound A121, 1-(3-(7-(2-amino-7-fluorobenzo[d]thiazol-4-yl)-6-chloro-8-fluoro-2-(((2R,7aS)-2-fluorotetrahydro-1H-pyrrolizin-7a(5H)-yl)methoxy)quinazolin-4-yl)-3,8-diazabicyclo[3.2. 1]octane-8-carbonyl)-1H-pyrrole-2-carbonitrile] | A (A: indicates that the ratio of IC50 against KrasG12D vs. IC50 against KrasG12S is 1-fold or greater) |  | ≤ 1000 |
| Nc1nc2c(-c3c(Cl)cc4c(N5CC6CCC(C5)N6C(=O)Nc5cncnc5)nc(OC[C@@]56CCCN5C[C@H](F)C6)nc4c3F)ccc(F)c2s1 [Compound A124, 3-(7-(2-amino-7-fluorobenzo[d]thiazol-4-yl)-6-chloro-8-fluoro-2-(((2R,7aS)-2-fluorotetrahydro-1H-pyrrolizin-7a(5H)-yl)methoxy)quinazolin-4-yl)-N-(pyrimidin-5-yl)-3,8-diazabicyclo[3.2. 1]octane-8-carboxamide] | A (A: indicates that the ratio of IC50 against KrasG12D vs. IC50 against KrasG12S is 1-fold or greater) |  | ≤ 1000 |
| Nc1nc2c(-c3c(Cl)cc4c(N5CC6CCC(C5)N6C(=O)n5cccn5)nc(OC[C@@]56CCCN5C[C@H](F)C6)nc4c3F)ccc(F)c2s1 [Compound A130, (3-(7-(2-amino-7-fluorobenzo[d]thiazol-4-yl)-6-chloro-8-fluoro-2-(((2R,7aS)-2-fluorotetrahydro-1H-pyrrolizin-7a(5H)-yl)methoxy)quinazolin-4-yl)-3,8-diazabicyclo[3.2.1]octan-8-yl)(1H-pyrazol-1-yl)methanone] | A (A: indicates that the ratio of IC50 against KrasG12D vs. IC50 against KrasG12S is 1-fold or greater) |  | 1000 to 10000 |
| Nc1nc2c(-c3c(Cl)cc4c(N5CC6CCC(C5)N6C(=O)n5cnc(F)c5)nc(OC[C@@]56CCCN5C[C@H](F)C6)nc4c3F)ccc(F)c2s1 [Compound A135, (3-(7-(2-amino-7-fluorobenzo[d]thiazol-4-yl)-6-chloro-8-fluoro-2-(((2R,7aS)-2-fluorotetrahydro-1H-pyrrolizin-7a(5H)-yl)methoxy)quinazolin-4-yl)-3,8-diazabicyclo[3.2.1]octan-8-yl)(4-fluoro-1H-imidazol-1-yl)methanone] | A (A: indicates that the ratio of IC50 against KrasG12D vs. IC50 against KrasG12S is 1-fold or greater) |  | ≤ 1000 |
| N#Cc1c(N)sc2c(F)ccc(-c3c(Cl)cc4c(N5CC6CCC(C5)N6C(=O)n5cccc5C#N)nc(OC[C@@]56CCCN5C[C@H](F)C6)nc4c3F)c12 [Compound A138, 1-(3-(7-(2-amino-3-cyano-7-fluorobenzo[b]thiophen-4-yl)-6-chloro-8-fluoro-2-(((2R,7aS)-2-fluorotetrahydro-1H-pyrrolizin-7a(5H)-yl)methoxy)quinazolin-4-yl)-3,8-diazabicyclo[3.2. 1]octane-8-carbonyl)-1H-pyrrole-2-carbonitrile] | A (A: indicates that the ratio of IC50 against KrasG12D vs. IC50 against KrasG12S is 1-fold or greater) |  | ≤ 1000 |
| Nc1nc2c(-c3c(Cl)cc4c(N5CCCC56CCCN(C(=O)n5cncn5)C6)nc(OC[C@@]56CCCN5C[C@H](F)C6)nc4c3F)ccc(F)c2s1 (stereo partly drawn) [Compound A144, (1-(7-(2-amino-7-fluorobenzo[d]thiazol-4-yl)-6-chloro-8-fluoro-2-(((2R,7aS)-2-fluorotetrahydro-1H-pyrrolizin-7a(5H)-yl)methoxy)quinazolin-4-yl)-1,7-diazaspiro[4.5]decan-7-yl)(1H-1,2,4-triazol-1-yl)methanone] | A (A: indicates that the ratio of IC50 against KrasG12D vs. IC50 against KrasG12S is 1-fold or greater) | 1000 to 10000 |  |
| Cc1cnn(C(=O)N2CCN(c3nc(OC[C@@]45CCCN4C[C@H](F)C5)nc4c(F)c(-c5ccc(F)c6sc(N)nc56)c(Cl)cc34)CC2)c1 [Compound A149, (4-(7-(2-amino-7-fluorobenzo[d]thiazol-4-yl)-6-chloro-8-fluoro-2-(((2R,7aS)-2-fluorotetrahydro-1H-pyrrolizin-7a(5H)-yl)methoxy)quinazolin-4-yl)piperazin-1-yl)(4-methyl-1H-pyrazol-1-yl)methanone] | A (A: indicates that the ratio of IC50 against KrasG12D vs. IC50 against KrasG12S is 1-fold or greater) | 1000 to 10000 |  |
| N#Cc1cnn(C(=O)N2CCC(Nc3nc(OC[C@@]45CCCN4C[C@H](F)C5)nc4c(F)c(-c5ccc(F)c6sc(N)nc56)c(Cl)cc34)CC2)c1 [Compound A151, 1-(4-((7-(2-amino-7-fluorobenzo[d]thiazol-4-yl)-6-chloro-8-fluoro-2-(((2R,7aS)-2-fluorotetrahydro-1H-pyrrolizin-7a(5H)-yl)methoxy)quinazolin-4-yl)amino)piperidine-1-carbonyl)-1H-pyrazole-4-carbonitrile] | A (A: indicates that the ratio of IC50 against KrasG12D vs. IC50 against KrasG12S is 1-fold or greater) | 1000 to 10000 |  |
| Nc1nc2c(-c3c(Cl)cc4c(NCCN5CCN(C(=O)n6cncn6)CC5)nc(OC[C@@]56CCCN5C[C@H](F)C6)nc4c3F)ccc(F)c2s1 [Compound A156, (4-(2-((7-(2-amino-7-fluorobenzo[d]thiazol-4-yl)-6-chloro-8-fluoro-2-(((2R,7aS)-2-fluorotetrahydro-1H-pyrrolizin-7a(5H)-yl)methoxy)quinazolin-4-yl)amino)ethyl)piperazin-1-yl)(1H-1,2,4-triazol-1-yl)methanone] | A (A: indicates that the ratio of IC50 against KrasG12D vs. IC50 against KrasG12S is 1-fold or greater) | 1000 to 10000 |  |
